Results published in PubChem BioAssay (NCI).
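Briefly, cells in 96-well plates were exposed to five compound concentrations for 48 h, and endpoints were estimated by linear interpolation. At the TGI there is no net growth.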

Assays:
Assay in all cases: growth of human tumour cells (NCI), 48 h
[1] = test system: SN12C renal
[2] = test system: UACC-257 melanoma
[3] = test system: HOP-92 NSCLC
[4] = test system: OVCAR-3 ovarian
[5] = test system: SK-MEL-28 melanoma
[6] = test system: SK-MEL-5 melanoma
[7] = test system: MDA-N
[8] = test system: BT-549 breast
[9] = test system: HS 578T breast
[10] = test system: IGROV1 ovarian
[11] = test system: NCI/ADR-RES ovarian
[12] = test system: SF-268 CNS
[13] = test system: A498 renal
[14] = test system: COLO 205 colon
[15] = test system: HCT-116 colon
[16] = test system: SF-539 CNS
[17] = test system: ACHN renal
[18] = test system: OVCAR-5 ovarian
[19] = test system: TK-10 renal
[20] = test system: UACC-62 melanoma
[21] = test system: NCI-H226 lung
[22] = test system: SK-MEL-2 melanoma
[23] = test system: MDA-MB-435
[24] = test system: NCI-H23 lung
[25] = test system: OVCAR-4 ovarian
[26] = test system: LOX IMVI melanoma
[27] = test system: MOLT-4 leukemia
[28] = test system: SW-620 colon
[29] = test system: HT29 colon
[30] = test system: MDA-MB-231 breast
[31] = test system: SK-OV-3 ovarian
[32] = test system: HL-60(TB) leukemia
[33] = test system: SNB-75 CNS
[34] = test system: EKVX NSCLC
[35] = test system: HOP-62 NSCLC
[36] = test system: MCF7 breast
[37] = test system: HCC-2998 colon
[38] = test system: M14 melanoma
[39] = test system: SNB-19 CNS
[40] = test system: K-562 leukemia
[41] = test system: NCI-H522 lung
[42] = test system: KM12 colon
[43] = test system: CAKI-1 renal
[44] = test system: PC-3 prostate
[45] = test system: NCI-H460 lung
[46] = test system: RXF 393 renal
[47] = test system: RPMI-8226 leukemia
[48] = test system: HCT-15 colon
[49] = test system: UO-31 renal
[50] = test system: SF-295 CNS
[51] = test system: A549 NSCLC
[52] = test system: OVCAR-8 ovarian
[53] = test system: U251 CNS
[54] = test system: DU-145 prostate
[55] = test system: T-47D breast
[56] = test system: 786-0 renal
[57] = test system: SR leukemia

CC(C)(C)[Si](C)(C)OC[C@H](/C=C\CCCC(=O)O)NC1(c2ccccc2)c2ccccc2-c2ccccc21
TGI [1]: 31.6 µM | TGI [2]: 43.4 µM | TGI [3]: 25.5 µM | TGI [4]: 36.1 µM | TGI [5]: 33 µM | TGI [6]: 23.3 µM | TGI [7]: > 100 µM | TGI [8]: 91.6 µM | TGI [9]: 50.5 µM | TGI [10]: 97 µM | TGI [11]: 61 µM | TGI [12]: 35.4 µM | TGI [13]: 32.1 µM | TGI [14]: 26.5 µM | TGI [15]: 44.8 µM | TGI [16]: 31.3 µM | TGI [17]: 49.5 µM | TGI [18]: 76.6 µM | TGI [19]: > 100 µM | TGI [20]: 36 µM | TGI [21]: 26 µM | TGI [22]: 26.7 µM | TGI [23]: 39.3 µM | TGI [24]: 63.2 µM | TGI [25]: > 100 µM | TGI [26]: 25.5 µM | TGI [27]: 33.9 µM | TGI [28]: > 100 µM | TGI [29]: 47.6 µM | TGI [30]: 39.3 µM | TGI [31]: 72.8 µM | TGI [32]: 37 µM | TGI [33]: > 100 µM | TGI [34]: 40.9 µM | TGI [35]: 42.3 µM | TGI [36]: 34.5 µM | TGI [37]: 37.2 µM | TGI [38]: 38.8 µM | TGI [39]: > 100 µM | TGI [40]: 45.5 µM | TGI [41]: > 100 µM | TGI [42]: 48.8 µM | TGI [43]: 93.9 µM | TGI [44]: 40.3 µM | TGI [45]: 59.8 µM | TGI [46]: 25 µM | TGI [47]: 23.3 µM | TGI [48]: 50.9 µM | TGI [49]: 34.4 µM | TGI [50]: > 100 µM | TGI [51]: > 100 µM | TGI [52]: 46.2 µM | TGI [53]: 30.6 µM | TGI [54]: > 100 µM | TGI [55]: > 100 µM | TGI [56]: 30.3 µM | TGI [57]: 32.3 µM
